In patent US11993574B2, “Pyrazole and imidazole compounds for inhibition of IL-17 and RORgamma” (REATA PHARMACEUTICALS, INC., priority 2018, dated 2024):
pIC50: −log10 of the molar value.

Assays:
Format in all cases: cell-based
[1] = system: IL-17A; test: IL-17 release from differentiated primary human T-cells (IL-17A HTRF assay); details: primary human CD4+ T cells differentiated into Th17 cells, 45-hour incubation, IL-17A in supernatant; read-out: hIL17 IC50
Experimental: C. IL-17 Release from Differentiated Primary Human T-Cells and Cell Viability
Primary human cryopreserved CD4+ T Cells (Lonza) were thawed according to the manufacturer's recommendations and plated either in Lymphocyte Growth Medium-3 (LGM-3) or X-VIVO 20 media (Lonza) in 96-well tissue culture plates at a density of ˜2×10^5 cells per well, and allowed to recover for approximately 4 hours at 37° C. with 5% CO2 in a humidified atmosphere. After the recovery step, DMSO (vehicle) or test compound at doses ranging from 2 to 500 nM or 4 to 1000 nM in a three-fold dilution series was added to the cells. Three replicate wells were tested for each treatment condition. Final DMSO concentration in each well was 0.1%. Immediately after treatment, CD4+ T cells were activated by adding Dynabeads Human T-Activator CD3/CD28 (Life Technologies; bead-to-cell ratio of 1:2.5) and differentiated into Th17 cells by adding a mixture of the following cytokines: transforming growth factor-β (TGF-β, 5 ng/mL), IL-6 (20 ng/mL), IL-23 (20 ng/mL), and IL-1β (10 ng/mL). Undifferentiated control cells received only cytokine IL-2 (50 ng/mL). All human recombinant cytokines were purchased from R&D Systems. Following a 45-hour incubation at 37° C. with 5% CO2 in a humidified atmosphere, the plates were centrifuged for 3 minutes at 250×g, and half of the supernatant was transferred to anew plate to be used in the IL-17A assay (see below). Cell viability was assessed in the original plate using the CyQuant Direct Assay (Life Technologies). CyQuant reagent (an amount equal to 10% of remaining media volume) was added to the wells, and the plates were then incubated at 37° C. for 75 min. Fluorescence was read on a SpectraMax M2e spectrophotometer at 480 nm (excitation) and 535 nm (emission) wavelengths. CyQuant values from test compound samples were normalized to those from DMSO-treated samples. The concentration of IL-17A in the supernatant was measured using the Homogeneous Time-Resolved Fluorescence (HTRF) assay (Cisbio Bioassays) according to the manufacturer's protocol. The assay was performed at room temperature in low volume, solid white 384-well plates (Greiner Bio-One). Samples and standards (serially-diluted human recombinant IL-17A (0 to 5,000 pg/mL concentration range; Cisbio Bioassays) were incubated with the anti-human IL-17A antibody conjugates (the HTRF donor and acceptor pair) for 16 hours and fluorescence was measured using a Pherastar FS microplate reader (BMG Labtech) in the HTRF mode (excitation at 337 nm and emission at 665 nm and 620 nm). IL-17A levels were assessed in duplicate aliquots of supernatant from each well resulting in a total of six readings per test condition. The 665 nm/620 nm signal ratio was calculated and the concentration of IL-17A in each sample was determined by interpolation from the standard curve. The amount of IL-17A from test compound treated samples were normalized to that of the vehicle-treated samples, set to 100%. Data were analyzed using GraphPad Prism (GraphPad Software, La Jolla California USA). Concentrations of test compound were transformed by taking the logarithm of each concentration used. The IC50 values for compound-mediated reduction in IL-17A levels and cell viability were determined by non-linear regression analysis using the log(inhibitor) vs. normalized response with variable slope equation. Inhibition that is closely correlated with reduced viability is considered to be non-specific.

[2] = system: Nrf2 transcription factor; test: AREc32 luciferase reporter assay; details: Homo sapiens; AREc32 cells, 19 hours; concentration required to increase GST ARE luciferase reporter activity by 2-fold; read-out: NRF2 ARE 2-Fold (EC2×)
Excerpt: A. AREc32 Luciferase Reporter Assay
The AREc32 luciferase reporter assay allows for quantitative assessment of the endogenous activity of the Nrt2 transcription factor in cultured mammalian cells. AREc32 cells are derived from MCF-7 human breast carcinoma cells that were stably transfected with a reporter construct that contains the firefly luciferase gene located downstream of eight copies of the rat GSTA2 antioxidant response element (ARE) sequence (Wang et al., 2006; Concept Life Sciences Integrated Discovery and Development Services Ltd (CLSIDDS)). Active Nrf2 binds to the ARE sequences and increases expression of the firefly luciferase gene. To assess the Nrf2-activating potential of the test compounds, AREc32 cells were plated in black […] plates at a density of 20,000 cells per well in triplicate in DMEM+10% FBS+0.8 mg/mL Geneticin and incubated at 37° C. with 5% CO2 in a humidified atmosphere. The next day, cells were treated with DMSO (vehicle) or test compound (concentration ranges of 0.4-200 nM or 3.9-2000 nM) for 19 hours. Luciferase activity was determined using the ONE-Glo Luciferase assay (Promega). The luminescence signal was measured on a BMG Pherastar microplate reader. The mean luminescence value from test compound-treated wells was normalized to that from DMSO-treated wells and was represented as fold-induction. Data were analyzed using GraphPad Prism version 6.00 for Windows, GraphPad Software, La Jolla Calif. USA. A non-linear regression curve with log (agonist) vs. response using a variable slope was used to fit the data. Where applicable, a maximum threshold value of 50-fold over DMSO was set. EC2× values were interpolated from the curve. EC2× corresponds to the concentration of test compound required to increase GST ARE Luciferase reporter activity by 2-fold.

[3] = target: T1, Human RAR-related Orphan Receptor Gamma (RORγ) (Homo sapiens, UniProt P51449); test: RORγ assay (GAL4-RORγ hybrid luciferase reporter, Indigo Biosciences); details: inverse-agonist activity, GAL4-RORγ reporter cells, 23 hours
T1 sequence (P51449 269-508 limits assumed): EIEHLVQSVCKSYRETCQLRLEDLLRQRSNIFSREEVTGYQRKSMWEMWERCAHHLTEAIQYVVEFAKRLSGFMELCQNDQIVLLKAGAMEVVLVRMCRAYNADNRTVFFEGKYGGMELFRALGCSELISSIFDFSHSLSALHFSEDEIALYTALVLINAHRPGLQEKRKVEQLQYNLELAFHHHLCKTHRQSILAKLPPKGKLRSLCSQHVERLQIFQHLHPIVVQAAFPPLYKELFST
Excerpt: B. RORγ Assay and Cell Viability
The RORγ assay system was purchased from Indigo Biosciences. This nuclear receptor assay utilizes a human cell line that has been engineered to express a hybrid form of the Human RAR-related Orphan Receptor Gamma (RORγ) at high levels. The N-terminal DNA binding domain (DBD) of the native RORγ receptor was substituted with the yeast GAL4-DBD to generate the GAL4-RORγ hybrid nuclear receptor. The reporter cell line is transfected with a plasmid that encodes the beetle luciferase gene under the control of the GAL4 upstream activating sequence (UAS). GAL4 binds to the UAS and increases transcription of downstream target genes. The GAL4-RORγ hybrid is constitutively active; therefore, the principle application of this reporter assay system is to screen test compounds to quantify inverse-agonist activities against human RORγ. Because the ligand binding domain (LBD) of RORγ is identical to the LBD of RORγt, this assay is an accurate surrogate for evaluating activity of experimental ligands against RORγt. To assess the RORγ inverse-agonist activity of the test compounds, reporter cells were plated in white 96-well plates in triplicate and were treated with DMSO (vehicle) or test compound (concentration ranges of 7.8-2000 nM) at 37° C. with 5% CO2 in a humidified atmosphere for 23 hours. After this incubation, luciferin was added to the wells and luciferase activity was determined by measuring the luminescence signal using a BMG Pherastar microplate reader. Viability was determined using the Live Cell Multiplex Assay (Indigo Biosciences). Values from test compound samples were normalized to those from DMSO-treated samples. Data were analyzed using GraphPad Prism version 6.00 for Windows (GraphPad Software, La Jolla Calif. USA). A non-linear regression analysis with log (inhibitor) vs. normalized response using a variable slope was applied to fit the data and determine the IC50 values for inhibition of RORγ and cell viability. Inhibition that is closely correlated with reduced viability is considered to be non-specific.

| SMILES | pIC50 [1] | EC (2-fold) [2] [µM] | pIC50 [3] |
| --- | --- | --- | --- |
| C[C@H]1C(=O)C(C#N)=C[C@@]2(C)c3c(c(-c4ccccc4)nn3-c3ccc(-c4ccc(N(C)C)cc4)cc3)CC[C@H]12 [T47] | 7.59 | 0.253 | 7.17 |
| C[C@H]1C(=O)C(C#N)=C[C@@]2(C)c3c(c(-c4ccncn4)nn3-c3ccc(-c4ccccc4)cc3)CC[C@H]12 [T48] | 7.52 | 0.187 | 7.35 |
| C[C@H]1C(=O)C(C#N)=C[C@@]2(C)c3c(c(-c4ccncn4)nn3-c3ccc(-c4cncc(F)c4)cc3)CC[C@H]12 [T49] | 7.28 | 0.392 | 7.23 |
| C[C@H]1C(=O)C(C#N)=C[C@@]2(C)c3c(c(-c4ccncn4)nn3-c3ccc(-c4cncnc4)cc3)CC[C@H]12 [T50] | 6.49 | 0.977 | 6.94 |
| C[C@H]1C(=O)C(C#N)=C[C@@]2(C)c3c(c(-c4ccncn4)nn3-c3ccc(-c4cccnc4)cc3)CC[C@H]12 [T51] | 7.04 | 0.501 | 7.32 |
| C[C@H]1C(=O)C(C#N)=C[C@@]2(C)c3c(c(-c4ccncn4)nn3-c3ccc(-c4cccnc4)cc3F)CC[C@H]12 [T53] | 7.06 | 0.489 | 7.24 |
| C[C@H]1C(=O)C(C#N)=C[C@@]2(C)c3c(c(-c4ccncn4)nn3-c3ccc(-c4ccnc(CF)c4)cc3)CC[C@H]12 [T54] | 7.48 | 0.355 | 7.28 |
| C[C@H]1C(=O)C(C#N)=C[C@@]2(C)c3c(c(-c4ccncn4)nn3-c3ccc(-c4ccnc(CO)c4)cc3)CC[C@H]12 [T55] | 6.83 | 0.609 | 6.76 |
| C[C@H]1C(=O)C(C#N)=C[C@@]2(C)c3c(c(-c4ccncn4)nn3-c3ccc(-c4ccc(F)cc4)cn3)CC[C@H]12 [T56] | 7.26 | 0.433 | 7.00 |
| C[C@H]1C(=O)C(C#N)=C[C@@]2(C)c3c(c(-c4ccncn4)nn3-c3ccc(-c4cccnc4)cn3)CC[C@H]12 [T57] | 7.17 | 0.403 | 7.02 |
| C[C@H]1C(=O)C(C#N)=C[C@@]2(C)c3c(c(-c4ccncn4)nn3-c3ccc(-c4cccc(F)c4)cn3)CC[C@H]12 [T58] | 7.37 | 0.355 | 6.89 |
| C[C@H]1C(=O)C(C#N)=C[C@@]2(C)c3c(c(-c4ccncn4)nn3-c3ccc(-c4ccccc4)cn3)CC[C@H]12 [T59] | 7.00 | 0.449 | 6.95 |
| C[C@H]1C(=O)C(C#N)=C[C@@]2(C)c3c(c(-c4ccncn4)nn3-c3ccc(-c4cccc(CO)c4)cn3)CC[C@H]12 [T60] | 6.85 | 0.44 | 7.00 |
| C[C@H]1C(=O)C(C#N)=C[C@@]2(C)c3c(c(-c4ccncn4)nn3-c3ccc(-c4cccc(CF)c4)cn3)CC[C@H]12 [T61] | 6.94 | 0.251 | 6.87 |
| C[C@H]1C(=O)C(C#N)=C[C@@]2(C)c3c(c(-c4ccncn4)nn3-c3ccc(C(F)(F)F)cn3)CC[C@H]12 [T63] | 6.82 | 0.725 | 6.70 |
| C[C@H]1C(=O)C(C#N)=C[C@@]2(C)c3c(c(-c4ccncn4)nn3-c3ccc(-c4ccccc4)nc3)CC[C@H]12 [T64] | 6.84 | 0.636 | 6.91 |
| C[C@H]1C(=O)C(C#N)=C[C@@]2(C)c3c(c(-c4ccc(F)cc4)nn3-c3ccc(-c4ccccc4)cc3)CC[C@H]12 [T65] | 7.92 | 0.201 | 7.11 |
| C[C@H]1C(=O)C(C#N)=C[C@@]2(C)c3c(c(-c4ccccc4F)nn3-c3ccc(-c4ccccc4)cc3)CC[C@H]12 [T66] | 7.72 | 0.128 | 7.24 |
| C[C@H]1C(=O)C(C#N)=C[C@@]2(C)c3c(c(-c4ccncc4)nn3-c3ccc(-c4ccccc4)cc3)CC[C@H]12 [T67] | 7.59 | 0.269 | 7.31 |
| C[C@H]1C(=O)C(C#N)=C[C@@]2(C)c3c(c(-c4cccnc4)nn3-c3ccc(-c4ccccc4)cc3)CC[C@H]12 [T68] | 7.57 | 0.248 | 7.44 |
| Cc1ccc(-c2nn(-c3ccc(-c4ccccc4)cc3)c3c2CC[C@@H]2[C@@H](C)C(=O)C(C#N)=C[C@@]32C)cc1 [T69] | 7.92 | 0.38 | 6.85 |
| C[C@H]1C(=O)C(C#N)=C[C@@]2(C)c3c(c(-c4cncnc4)nn3-c3ccc(-c4ccccc4)cc3)CC[C@H]12 [T70] | 7.24 | 0.472 | 7.12 |
| CC(C)c1cccc(-c2nn(-c3ccc(-c4ccccc4)cc3)c3c2CC[C@@H]2[C@@H](C)C(=O)C(C#N)=C[C@@]32C)c1 [T71] | 8.05 | 0.257 | 6.53 |
